Earlier results, collected in patent US20060135482A1, “Use of fosinopril to reduce cardiovascular events in disalysis patients” (priority 2002, published 2006).
Where two headings read alike, the source gives them in different places. Values belong to the compound of their own block, whether it stands above or below them.

Columns and labels:
[1] = patients Clcr<30 ml/min
[2] = varying degrees of renal insufficiency incl. severe (Clcr<10 ml/min); relative to normal renal function
[3] = 10 days; renal insufficiency patients
[4] = blood dialysis or peritoneal dialysis patients with terminal renal insufficiency
[5] = normal liver and kidney function; hepatic clearance increases if renal function impaired

AUCd10/AUCd1 (accumulation ratio, area under the curve day 10/day 1) ([1]; lisinopril 5 mg/day for 10 days, p<0.001 versus fosinopril): 2.57
Structure (SMILES): NCCCC[C@H](N[C@@H](CCc1ccccc1)C(=O)O)C(=O)N1CCC[C@H]1C(=O)O [lisinopril]

AUCd10/AUCd1 (accumulation ratio, area under the curve day 10/day 1) ([1]; fosinopril 10 mg/day for 10 days, comparison versus enalapril, p=0.02): 1.41
AUCd10/AUCd1 (accumulation ratio, area under the curve day 10/day 1) ([1]; fosinopril 10 mg/day for 10 days, comparison versus lisinopril, p<0.001): 1.3
Structure (SMILES): CCC(=O)O[C@@H](O[P@](=O)(CCCCc1ccccc1)CC(=O)N1C[C@H](C2CCCCC2)C[C@H]1C(=O)O)C(C)C [fosinopril, (2S,4S)-4-cyclohexyl-1-[2-[(R)-[[(S)-2-methyl-1-(propanoyl-oxy)propyl]oxy](4-phenylbutyl)phosphinoyl]acetyl]pyrrolidine-2-carboxylic acid]
Total clearance of the medicament [2]: about half of that observed in an individual with normal renal function
Accumulation on repeated administration [3]: accumulates less than enalapril or lisinopril
Pharmacokinetic parameters [4]: remain comparable with those observed in patients with mild, moderate or severe renal insufficiency
Elimination route [5]: eliminated in equal parts via the liver and the kidneys

AUCd10/AUCd1 (accumulation ratio, area under the curve day 10/day 1) ([1]; enalapril 2.5 mg/day for 10 days, p=0.02 versus fosinopril): 1.96
Structure (SMILES): CCOC(=O)[C@H](CCc1ccccc1)N[C@@H](C)C(=O)N1CCC[C@H]1C(=O)O [enalapril]
